Laboratory results published in ChEMBL document CHEMBL5046231, “Modulation of Naturally Occurring Linear Dipeptide Chirality to Reduce the Affinity for Oligopeptide Transporter 1 and Increase Intestinal Stability for an Enhanced Colon-Targeting Effect in the Treatment of Inflammatory Bowel Disease: An Application of trans-4-l-Hydroxyprolyl-l-serine” (J Med Chem, 2022).
The source made the active and inactive calls. No cut-off for these calls is given here.

Tests used:
[1] = Chemical stability in 0.1 M HCl at pH 1.2 assessed as half life measured up to 12 hrs by HPLC analysis; assay type: physicochemical
[2] = Chemical stability in acetate buffer at pH 4.5 assessed as half life measured up to 12 hrs by HPLC analysis; assay type: physicochemical
[3] = Chemical stability in phosphate buffer at pH 6.8 assessed as half life measured up to 12 hrs by HPLC analysis; assay type: physicochemical
[4] = Chemical stability in phosphate buffer at pH 7.2 assessed as half life measured up to 12 hrs by HPLC analysis; assay type: physicochemical
[5] = Stability in simulated gastric fluid at pH 1.2 assessed as half life measured up to 12 hrs by HPLC analysis; assay type: ADME
[6] = Stability in simulated intestinal fluid at pH 6.8 assessed as half life measured up to 12 hrs by HPLC analysis; assay type: ADME
[7] = Metabolic stability in healthy C57BL/6 mouse jejunum assessed as half life measured up to 12 hrs by HPLC analysis; assay type: ADME, tissue-based
[8] = Metabolic stability in healthy C57BL/6 mouse colon assessed as half life measured up to 12 hrs by HPLC analysis; assay type: ADME, tissue-based
[9] = Metabolic stability in healthy C57BL/6 mouse colonic flora homogenate assessed as half life measured up to 12 hrs by HPLC analysis; assay type: ADME
[10] = Metabolic stability in healthy C57BL/6 mouse liver assessed as half life measured up to 12 hrs by HPLC analysis; assay type: ADME, tissue-based
[11] = Metabolic stability in healthy C57BL/6 mouse plasma assessed as half life measured up to 12 hrs by HPLC analysis; assay type: ADME, cell-free
[12] = Metabolic stability in DSS-induced C57BL/6 mouse jejunum assessed as half life measured up to 12 hrs by HPLC analysis; assay type: ADME, tissue-based
[13] = Metabolic stability in DSS-induced C57BL/6 mouse colon assessed as half life measured up to 12 hrs by HPLC analysis; assay type: ADME, tissue-based
[14] = Metabolic stability in DSS-induced C57BL/6 inflammatory mouse model colonic flora homogenate assessed as half life measured up to 12 hrs by HPLC analysis; assay type: ADME; conditions: C57BL/6, mouse
[15] = Stability in human Caco-2 cells homogenate assessed as half life measured up to 12 hrs by HPLC analysis; assay type: ADME, cell-based; conditions: Caco-2 cell homogenate
[16] = target: T1, Solute carrier family 15 member 1 (Rattus norvegicus, UniProt P51574); test: Substrate activity in PEPT1 in Sprague-Dawley rat jejunum assessed as fold increase in effective permeability at 5 mM measured up to 60 mins in presence of Gly-Sar by HPLC analysis relative to its enantiomers; assay type: ADME, tissue-based; conditions: 1 h, 5000 µM
T1 sequence (P51574 whole entry): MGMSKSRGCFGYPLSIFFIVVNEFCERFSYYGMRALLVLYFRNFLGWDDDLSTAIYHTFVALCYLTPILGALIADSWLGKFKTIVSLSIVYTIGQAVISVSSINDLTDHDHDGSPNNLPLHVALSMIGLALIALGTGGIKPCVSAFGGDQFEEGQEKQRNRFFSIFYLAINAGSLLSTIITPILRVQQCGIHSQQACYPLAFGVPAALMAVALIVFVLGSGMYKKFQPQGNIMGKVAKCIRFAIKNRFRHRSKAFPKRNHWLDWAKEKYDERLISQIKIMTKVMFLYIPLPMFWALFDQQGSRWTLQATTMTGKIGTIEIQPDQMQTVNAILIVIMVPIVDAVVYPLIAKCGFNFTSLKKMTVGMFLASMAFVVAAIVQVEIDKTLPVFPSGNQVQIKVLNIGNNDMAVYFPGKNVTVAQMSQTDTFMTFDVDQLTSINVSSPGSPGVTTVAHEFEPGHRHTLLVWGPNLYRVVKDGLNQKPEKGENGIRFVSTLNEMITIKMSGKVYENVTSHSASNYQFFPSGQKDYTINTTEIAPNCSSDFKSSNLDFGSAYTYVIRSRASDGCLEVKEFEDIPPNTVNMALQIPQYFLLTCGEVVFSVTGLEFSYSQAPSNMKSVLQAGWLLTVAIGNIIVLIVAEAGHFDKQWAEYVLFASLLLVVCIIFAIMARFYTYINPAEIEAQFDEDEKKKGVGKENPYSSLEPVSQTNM

[17] = target: T2, Solute carrier family 15 member 1 (Homo sapiens, UniProt P46059); test: Substrate activity at PEPT1 in human Caco-2 cells assessed as inhibition of Gly-Sar substrate uptake by UPLC-MS/MS analysis; assay type: cell-based
T2 sequence (P46059 whole entry): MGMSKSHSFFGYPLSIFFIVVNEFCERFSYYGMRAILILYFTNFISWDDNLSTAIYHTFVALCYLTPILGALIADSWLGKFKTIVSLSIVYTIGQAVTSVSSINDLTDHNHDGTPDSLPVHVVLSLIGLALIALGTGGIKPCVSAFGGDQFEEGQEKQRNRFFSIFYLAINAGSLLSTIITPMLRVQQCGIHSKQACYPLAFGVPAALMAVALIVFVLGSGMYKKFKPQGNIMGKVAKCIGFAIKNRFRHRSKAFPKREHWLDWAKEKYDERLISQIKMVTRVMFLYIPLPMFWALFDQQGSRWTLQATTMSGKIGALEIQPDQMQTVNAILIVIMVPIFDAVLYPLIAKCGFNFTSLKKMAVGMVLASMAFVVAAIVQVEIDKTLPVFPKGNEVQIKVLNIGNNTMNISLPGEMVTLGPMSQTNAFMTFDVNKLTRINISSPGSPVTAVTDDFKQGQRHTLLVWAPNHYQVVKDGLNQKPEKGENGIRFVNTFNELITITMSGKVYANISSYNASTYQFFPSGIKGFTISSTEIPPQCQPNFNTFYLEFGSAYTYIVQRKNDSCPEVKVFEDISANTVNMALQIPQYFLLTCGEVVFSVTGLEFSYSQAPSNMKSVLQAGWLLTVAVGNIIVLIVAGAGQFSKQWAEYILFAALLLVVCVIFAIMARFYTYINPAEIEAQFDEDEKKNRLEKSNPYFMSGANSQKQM

[18] = target: T2, Solute carrier family 15 member 1; test: Substrate activity at PEPT1 in human Caco-2 cells assessed as fold increase in drug uptake by UPLC-MS/MS analysis relative to its enantiomers; assay type: ADME, cell-based
[19] = target: T2, Solute carrier family 15 member 1; test: Substrate activity at PEPT1 in human Caco-2 cells assessed as fold reduction in drug uptake in presence of Gly-Sar by UPLC-MS/MS analysis relative to its enantiomers; assay type: ADME, cell-based
[20] = AUC (0 to 6 hrs) in DSS-induced colitis C57BL/6 mouse model at 25 mg/kg, po measured up to 6 hrs by UPLC-MS/MS analysis; assay type: ADME, organism-based; design: route oral, dose 25 mg/kg, time <=6; conditions: in vivo
[21] = Cmax in DSS-induced colitis C57BL/6 mouse model at 25 mg/kg, po measured up to 6 hrs by UPLC-MS/MS analysis; assay type: ADME, organism-based; design: route oral, dose 25 mg/kg, time <=6; conditions: in vivo
[22] = Tmax in DSS-induced colitis C57BL/6 mouse model at 25 mg/kg, po measured up to 6 hrs by UPLC-MS/MS analysis; assay type: ADME, organism-based; conditions: in vivo
Mus musculus [23] = test: Anti-colitis activity against DSS-induced colitis in C57BL/6 mouse model assessed as assessed as recovery of body weight at 25 mg/kg, po administered via gavage twice daily for 10 days; assay type: functional, organism-based; conditions: time 10.0 day
Mus musculus [24] = test: Anti-colitis activity against DSS-induced colitis in C57BL/6 mouse model assessed as increase in colon length at 25 mg/kg, po administered via gavage twice daily for 10 days; assay type: functional, organism-based; conditions: time 10.0 day
Mus musculus [25] = test: Anti-colitis activity against DSS-induced colitis in C57BL/6 mouse model assessed as fold decrease in disease activity index at 25 mg/kg, po administered via gavage twice daily for 10 days relative to control; assay type: functional; conditions: time 10 day
[26] = Apparent permeability across apical to basolateral side in human Caco-2 cells assessed as fold increase in permeability at 0.5 mM measured up to 60 mins by UPLC-MS/MS analysis relative to its enantiomers; assay type: ADME, cell-based; conditions: caco-2, 1 h, 500 µM
Jejunum = test: Effective permeability in Sprague-Dawley rat jejunum assessed as fold increase in permeability at 5 mM measured up to 60 mins by HPLC analysis relative to its enantiomers; assay type: ADME, tissue-based; conditions: 1 h, 5000 µM

**Q.** For `O=C(O)[C@H](CO)NC(=O)[C@@H]1C[C@@H](O)CN1`, which half-life [1] is on record?
**A.** Its half-life is over 12 h.

**Q.** And the half-life [2]?
**A.** Its half-life is over 12 h.

**Q.** What about the half-life [3] of the same compound?
**A.** The half-life was over 12 h.

**Q.** And the half-life [4]?
**A.** Its half-life is over 12 h.

**Q.** And the half-life [5]?
**A.** Its half-life is over 12 h.

**Q.** And the half-life [6]?
**A.** Its half-life is over 12 h.

**Q.** And the half-life [7]?
**A.** The half-life was 0.35 h.

**Q.** What about the half-life [8] of the same compound?
**A.** The half-life was over 12 h.

**Q.** What about the half-life [9] of the same compound?
**A.** The half-life was 0.86 h.

**Q.** And the half-life [10]?
**A.** The half-life was 0.27 h.

**Q.** And the half-life [11]?
**A.** The half-life was over 12 h.

**Q.** What about the half-life [12] of the same compound?
**A.** The half-life was 0.29 h.

**Q.** What about the half-life [13] of the same compound?
**A.** Its half-life is over 12 h.

**Q.** And the half-life [14]?
**A.** The half-life was 0.88 h.

**Q.** What about the half-life [15] of the same compound?
**A.** Its half-life is over 12 h.

**Q.** What about the “fold change (FC)” value [16] of the same compound?
**A.** The value was 7.8.

**Q.** And the IC50 [17]?
**A.** The IC50 was 5.18 mM.

**Q.** What about the “fold change (FC)” value [18] of the same compound?
**A.** Its value is 3.3.

**Q.** And the “fold change (FC)” value [19]?
**A.** Its value is 3.4.

**Q.** And the AUC [20]?
**A.** The AUC was 1.34 microM/L.hr.

**Q.** And the Cmax [21]?
**A.** Its Cmax is 520 nM.

**Q.** And the Tmax [22]?
**A.** Its Tmax is 2 h.

**Q.** What about the Activity (Mus musculus [23]) of the same compound?
**A.** Its Activity is “Active”.

**Q.** And the Activity (Mus musculus [24])?
**A.** The Activity was “Active”.

**Q.** And the “fold change (FC)” value (Mus musculus [25])?
**A.** Its value is 1.5.

**Q.** And the “fold change (FC)” value [26]?
**A.** The value was 6.3.

**Q.** And the “fold change (FC)” value (Jejunum)?
**A.** Its value is 7.3.
